Source: patent US20060257861A1 (priority 2005, published 2006)

Assays:
Assay type in all cases: biochemical
ACE1 [1] = tested on: ACE1
ACE1 [2] = tested on: ACE1; remark: listed apart in the source
ACE2 = target: T1, ACE2 (Mus musculus, UniProt Q8R0I0); assay: SELDI-TOF-MS ACE assay, kidney extract incubated with AngI (ACE2 activity); settings: AngI + kidney extract + MLN 4760
T1 construct: Kidney extract (source of ACE1 & ACE2); from tissue; host or cells: kidney extract
Protocol: FIG. 3: SELDI-TOF-MS ACE assay. Kidney extract (source of ACE1 & ACE2) were incubated with AngI A: kidney extract control; B: AngI; C: AngI+kidney extract, showing peptides generated from ACE1 & ACE2; D: AngI+kidney extract+MLN 4760 (ACE2 inhibitor).

T1 sequence (Q8R0I0 18-805): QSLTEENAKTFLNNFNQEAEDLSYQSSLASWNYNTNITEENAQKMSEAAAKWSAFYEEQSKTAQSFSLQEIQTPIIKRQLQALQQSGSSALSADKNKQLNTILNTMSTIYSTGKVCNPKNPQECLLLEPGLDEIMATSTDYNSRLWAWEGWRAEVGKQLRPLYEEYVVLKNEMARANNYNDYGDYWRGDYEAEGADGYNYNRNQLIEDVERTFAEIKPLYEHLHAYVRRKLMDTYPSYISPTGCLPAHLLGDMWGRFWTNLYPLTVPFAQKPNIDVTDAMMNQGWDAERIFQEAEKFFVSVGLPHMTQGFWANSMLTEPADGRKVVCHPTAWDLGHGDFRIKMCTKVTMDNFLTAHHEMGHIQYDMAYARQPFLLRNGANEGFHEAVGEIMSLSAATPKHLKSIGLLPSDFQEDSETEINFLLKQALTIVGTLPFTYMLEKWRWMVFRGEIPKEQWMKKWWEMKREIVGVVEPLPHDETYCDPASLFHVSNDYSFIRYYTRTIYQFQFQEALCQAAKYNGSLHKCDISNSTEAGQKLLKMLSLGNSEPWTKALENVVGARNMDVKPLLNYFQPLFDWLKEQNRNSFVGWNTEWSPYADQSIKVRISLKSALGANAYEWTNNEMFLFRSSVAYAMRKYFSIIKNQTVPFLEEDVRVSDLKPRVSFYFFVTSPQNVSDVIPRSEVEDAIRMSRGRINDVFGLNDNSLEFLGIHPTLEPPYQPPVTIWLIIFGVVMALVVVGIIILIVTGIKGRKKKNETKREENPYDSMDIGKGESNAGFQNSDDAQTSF

With `CC(C)C[C@H](N[C@@H](Cc1cncn1Cc1cc(Cl)cc(Cl)c1)C(=O)O)C(=O)O` [MLN 4760] the AngII level (ACE1 [1]) was “increased”, the “effect on ACE1” value (ACE1 [1]) was “without affecting ACE1” and the “effect on the formation of AngII” value (ACE1 [2]) was “no effect”. For the same compound, the “cleavage of AngI to Ang (1-7)” value (ACE2) was “inhibited”.
